Source: patent US20250019374A1, “PROTEIN TYROSINE PHOSPHATASE INHIBITORS AND METHODS OF USE THEREOF” (Calico Life Sciences LLC, priority 2021, published 2025)
pEC50, pIC50: −log10 of the molar value. Where two headings read alike, the source gives them in different places.

Tests used:
[1] = target: His tagged PTPN2 (TC45) protein (Homo sapiens (Human), UniProt P17706); assay: PTPN2 Mobility Shift Assay (MSA); type: biochemical; conditions: for Dihydrobenzofuran or Indoline x-fold>potency biochemical: x-fold versus corresponding chromane comparator, PTPN2 MSA
Experimental: Example III-1: Mobility Shift Assay (MSA) Used to Determine Potency of PTPN2 Inhibitors
Compound activity was determined using in house His tagged PTPN2 (TC45) protein (SEQ ID NO: 1) in an in vitro enzymatic reaction. The enzymatic assay used to determine activity was a mobility shift assay using a LabChip EZ Reader by Caliper Life Sciences. The enzymatic reaction was carried out in assay buffer (50 mM HEPES pH 7.5, 1 mM EGTA, 10 mM EDTA, 0.01% Tween® 20, and 2 mM DTT). The compounds were dispensed on a white 384 well ProxiPlate™ (PerkinElmer Catalog #6008289) plate using the Labcyte Echo at varying concentrations (12 point, 1:3 dilution). The enzyme (at 0.5 nM) was incubated with compound for 10 minutes at room temperature. Thereafter, the substrate (phosphorylated insulin receptor probe sequence: ((OG488)-(NH—CH2—CH2—O—CH2—CH2—O—CH2—CO)-T-R-D-I—(PY)-E-T-D-Y—Y—R—K—K—NH2) (SEQ ID NO: 2) was added at 2 μM to the plates and incubated for another 10 minutes at room temperature. Finally, a quench solution (water and 4-bromo-3-(2-oxo-2-propoxyethoxy)-5-(3-{[1-(phenylmethanesulfonyl)piperidin-4-yl]amino}phenyl)thiophene-2-carboxylic acid) was added to the plates, which were then run on the EZ Reader (excitation 488 nm, emission 530 nm) to measure % conversion (the amount of phosphorylated substrate which was de-phosphorylated by PTPN2). […] The % inhibition was then used to calculate the IC50 values.

[2] = target: His tagged full-length PTPN1 protein (Homo sapiens (Human), UniProt P18031); assay: PTPN1 Mobility Shift Assay (MSA); type: biochemical; conditions: enzyme 0.5 nM, substrate 2 μM
Experimental: Example III-2: Mobility Shift Assay (MSA) Used to Determine Potency of PTPN1 Inhibitors
Compound activity was determined using in house His tagged full-length PTPN1 protein (SEQ ID NO: 3) in an in vitro enzymatic reaction. The enzymatic assay used to determine activity is a mobility shift assay using a LabChip EZ Reader by Caliper Life Sciences. The enzymatic reaction was carried out in assay buffer (50 mM HEPES pH 7.5, 1 mM EGTA, 10 mM EDTA, 0.01% Tween® 20, and 2 mM DTT). The compounds were dispensed on a white 384 well ProxiPlate™ (PerkinElmer Cat ^#6008289) plate using a Labcyte Echo® liquid handler at varying concentrations (12 point, 1:3 dilution). The enzyme (at 0.5 nM) was incubated with compound for 10 minutes at room temperature. Thereafter, the substrate (phosphorylated insulin receptor probe sequence: ((OG488)-(NH—CH2—CH2—O—CH2—CH2—O—CH2—CO)-T-R-D-I—(PY)-E-T-D-Y—Y—R—K—K—NH2) (SEQ ID NO: 2) was added at 2 μM to the plates and incubated for another 10 minutes at room temperature. Finally, a quench solution (water and 4-bromo-3-(2-oxo-2-propoxyethoxy)-5-(3-{[1-(phenylmethanesulfonyl)piperidin-4-yl]amino}phenyl)thiophene-2-carboxylic acid) was added to the plates, which were then run on the EZ Reader (excitation 488 nm, emission 530 nm) to measure % conversion (the amount of phosphorylated substrate which was de-phosphorylated by PTPN1). […] The % inhibition was then used to calculate the IC50 values.

[3] = test system: IFNγ-induced STAT1 phosphorylation (pSTAT1) in B16F10 cells; assay: B16F10 Phospho-STAT1 HTRF proximal pharmacodynamic (PD) assay; type: cell-based, murine; conditions: for pEC50: B16-F10, B16F10 cells; for Dihydrobenzofuran or Indoline x-fold>potency cellular: x-fold versus corresponding chromane comparator, B16F10 pSTAT1
Experimental: Example III-3: B16F10 (Murine Melanoma Cells) Phospho-STAT1 HTRF Proximal Pharmacodynamic (PD) Assay
B16F10 cells were grown and maintained in high glucose DMEM (Gibco, Catalog^#11965-092, Dun Laoghaire Co Dublin) supplemented with 10% fetal bovine serum (Gibco, Catalog^#10082-139, Dun Laoghaire Co Dublin). The cells were pelleted and resuspended in high glucose DMEM without phenol red (Gibco, Catalog^#11054-020, Dun Laoghaire Co Dublin), supplemented with 10% fetal bovine serum and plated in a 384 well Corning plate (product^#3765, Corning, NY) at 11,000 cells per well in a volume of 20 μL. The cells were dosed with the compounds of interest using an Echo Liquid Handler (Beckman Coulter, Brea, CA) at 50 μM top dose with 3-fold dilutions down to 0.002679 μM for a 10-point dose response. The plate was incubated for 3 hours at 37° C. and subsequently treated with recombinant mouse IFNγ (R&D Systems, Catalog^#485-MI, Minneapolis, MN; 100 nM final concentration) for 10 minutes at 37° C. to induce STAT1 phosphorylation followed by 3.3 μM staurosporine treatment for 1 hour at 37° C. to terminate phosphorylation. Media was then aspirated and 20 μL of 1× lysis buffer/blocking reagent (Cisbio Phospho-STAT1 kit, part^# 63ADK026PEH, Bedford, MA) was added. The plate was placed on a plate shaker for 30 minutes at room temperature, sealed, and stored at −80° C. until needed. To thaw, the plate was placed on shaker at room temperature until completely thawed while the antibody master mix was made (1:40 Phospho-STAT1 Eu Cryptate antibody, 1:40 Phospho-STAT d2 antibody, with the detection buffer; Cisbio Phospho-STAT1 kit, part^#63ADK026PEH, Bedford, MA). The antibody master mix was then dispensed at 4 μL per well into a 384 ProxiPlate Plus (PerkinElmer, part^#6008289, Waltham, MA) and 16 μL of lysate was added from the Corning plate to the Proxiplate using a VIAFLO 384 (INTEGRA). The plate was incubated for 3 hours at room temperature and read on an EnVision® (Perkin Elmer) plate reader with laser excitation at 335 nm and emission at 665 nm. Dotmatics Studies (Bishop's Stortford, UK) was utilized to generate all dose-response curves and calculate EC50s and are shown in Table 2.

[4] = Table 3, dihydrobenzofuran or indoline compound (X = O or NH)
[5] = 3 hours compound, 100 nM mouse IFNγ 10 minutes, read-out: B16F10 IFNγ Induced pSTAT1 EC50
[6] = Mus musculus, Table 3, dihydrobenzofuran or indoline compound (X = O or NH), read-out: pSTAT1 EC50

Chain of His tagged full-length PTPN1 protein (P18031 whole entry): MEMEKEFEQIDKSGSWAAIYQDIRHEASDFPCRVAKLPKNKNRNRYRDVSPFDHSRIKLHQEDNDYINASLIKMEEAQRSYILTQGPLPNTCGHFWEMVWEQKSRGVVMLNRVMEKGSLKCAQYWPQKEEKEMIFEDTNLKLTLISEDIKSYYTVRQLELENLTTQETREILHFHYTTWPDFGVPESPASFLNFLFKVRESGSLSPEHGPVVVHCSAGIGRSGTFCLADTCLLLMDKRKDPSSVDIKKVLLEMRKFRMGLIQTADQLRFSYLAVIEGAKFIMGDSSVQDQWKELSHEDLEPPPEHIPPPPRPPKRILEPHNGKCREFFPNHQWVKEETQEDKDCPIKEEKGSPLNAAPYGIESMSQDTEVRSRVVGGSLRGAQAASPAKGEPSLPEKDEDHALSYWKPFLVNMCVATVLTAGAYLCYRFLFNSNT
Chain of His tagged PTPN2 (TC45) protein (P17706 other isoform, or with tags, fused parts or gaps): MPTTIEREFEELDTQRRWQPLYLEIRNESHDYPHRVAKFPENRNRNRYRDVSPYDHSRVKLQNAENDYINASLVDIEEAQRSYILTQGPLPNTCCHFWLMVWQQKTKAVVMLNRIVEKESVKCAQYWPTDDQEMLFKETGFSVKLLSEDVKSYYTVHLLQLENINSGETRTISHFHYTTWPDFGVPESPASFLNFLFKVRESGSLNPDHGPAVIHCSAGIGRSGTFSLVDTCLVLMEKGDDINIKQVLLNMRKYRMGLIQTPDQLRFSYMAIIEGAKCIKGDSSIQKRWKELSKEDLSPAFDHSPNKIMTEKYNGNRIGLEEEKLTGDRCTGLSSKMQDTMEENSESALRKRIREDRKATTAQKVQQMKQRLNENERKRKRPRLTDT

Row | SMILES | pIC50 [1, 4] | pIC50 ([1]; enzyme 0.5 nM, substrate 2 μM) | Dihydrobenzofuran or Indoline x-fold>potency biochemical [1] | pIC50 [2] | pEC50 [3, 5] | pEC50 [3, 6] | Dihydrobenzofuran or Indoline x-fold>potency cellular [3]
1 | O=C1CN(c2c(O)cc3c(c2F)C[C@H](CNCCC2CCOCC2)O3)S(=O)(=O)N1 [Compound 125, 5-[(2R)-4-fluoro-6-hydroxy-2-({[2-(oxan-4-yl)ethyl]amino}methyl)-2,3-dihydro-1-benzofuran-5-yl]-1λ^6,2,5-thiadiazolidine-1,1,3-trione] | 8.08 | > 8.00 | 2.2 | 7.00 to 8.00 | 5.51 | 5.51 | 10.4
2 | O=C1CN(c2c(O)cc3c(c2F)C[C@H](CNCCCc2ccccc2)O3)S(=O)(=O)N1 [Compound 127, 5-[(2R)-4-fluoro-6-hydroxy-2-{[(3-phenylpropyl)amino]methyl}-2,3-dihydro-1-benzofuran-5-yl]-1λ^6,2,5-thiadiazolidine-1,1,3-trione] | 8.39 | > 8.00 | 4.7 | 7.00 to 8.00 | 4.97 | 4.97 | >4.6
3 | CC1=C(CCNC[C@H]2Cc3c(cc(O)c(N4CC(=O)NS4(=O)=O)c3F)O2)C(C)(C)CCC1 [Compound 128, 5-[(2R)-4-fluoro-6-hydroxy-2-({[2-(2,6,6-trimethylcyclohex-1-en-1-yl)ethyl]amino}methyl)-2,3-dihydro-1-benzofuran-5-yl]-1λ^6,2,5-thiadiazolidine-1,1,3-trione] | 8.74 | > 8.00 | 12.5 | 7.00 to 8.00 | < 4.30 | < 4.30 | ~1.0
4 | O=C1CN(c2c(O)cc3c(c2F)C[C@H](CNCC2CC(c4ccccc4)C2)O3)S(=O)(=O)N1 (stereo partly drawn) [Compound 129, 5-[(2R)-4-fluoro-6-hydroxy-2-({[(3-phenylcyclobutyl)methyl]amino}methyl)-2,3-dihydro-1-benzofuran-5-yl]-1λ^6,2,5-thiadiazolidine-1,1,3-trione] | 8.60 | > 8.00 | 3.3 | 7.00 to 8.00 | 5.89 | 5.89 | >38.8
5 | O=C1CN(c2c(O)cc3c(c2F)C[C@H](CNCC2CCC(C(F)(F)F)CC2)O3)S(=O)(=O)N1 (stereo partly drawn) [Compound 130, 5-{(2R)-4-fluoro-6-hydroxy-2-[({[4-(trifluoromethyl)cyclohexyl]methyl}amino)methyl]-2,3-dihydro-1-benzofuran-5-yl}-1λ^6,2,5-thiadiazolidine-1,1,3-trione] | 8.36 | > 8.00 | 6.1 | 7.00 to 8.00 | < 4.30 | < 4.30 | ~1.0
6 | O=C1CN(c2c(O)cc3c(c2F)C[C@H](CNCC2(CF)CC2)O3)S(=O)(=O)N1 [Compound 131, 5-{(2R)-4-fluoro-2-[({[1-(fluoromethyl)cyclopropyl]methyl}amino)methyl]-6-hydroxy-2,3-dihydro-1-benzofuran-5-yl}-1λ^6,2,5-thiadiazolidine-1,1,3-trione] | 7.68 | 7.00 to 8.00 | 2.4 | 7.00 to 8.00 | 4.66 | 4.66 | >2.3
7 | CC(C)CNC[C@@H]1Cc2c(cc(O)c(N3CC(=O)NS3(=O)=O)c2F)N1 [Compound 132, 5-[(2S)-4-fluoro-6-hydroxy-2-{[(2-methylpropyl)amino]methyl}-2,3-dihydro-1H-indol-5-yl]-1λ^6,2,5-thiadiazolidine-1,1,3-trione] |  | 7.00 to 8.00 |  | < 7.00 | 5.33 |  | 
8 | CC(C)CNC[C@H]1Cc2c(cc(O)c(N3CC(=O)NS3(=O)=O)c2F)N1 [Compound 133, 5-[(2R)-4-fluoro-6-hydroxy-2-{[(2-methylpropyl)amino]methyl}-2,3-dihydro-1H-indol-5-yl]-1λ^6,2,5-thiadiazolidine-1,1,3-trione] |  | 7.00 to 8.00 |  | 7.00 to 8.00 | 5.91 |  | 
9 | CCC(CC)CNC[C@H]1Cc2c(cc(O)c(N3CC(=O)NS3(=O)=O)c2F)N1 [Compound 134, 5-[(2R)-2-{[(2-ethylbutyl)amino]methyl}-4-fluoro-6-hydroxy-2,3-dihydro-1H-indol-5-yl]-1λ^6,2,5-thiadiazolidine-1,1,3-trione] |  | 7.00 to 8.00 |  | 7.00 to 8.00 | 6.02 |  | 
10 | CCCNC[C@H]1Cc2c(cc(O)c(N3CC(=O)NS3(=O)=O)c2F)N1 [Compound 135, 5-{(2R)-4-fluoro-6-hydroxy-2-[(propylamino)methyl]-2,3-dihydro-1H-indol-5-yl}-1λ^6,2,5-thiadiazolidine-1,1,3-trione] |  | 7.00 to 8.00 |  | 7.00 to 8.00 | 6.12 |  | 
11 | COCCNC[C@H]1Cc2c(cc(O)c(N3CC(=O)NS3(=O)=O)c2F)N1 [Compound 136, 5-[(2R)-4-fluoro-6-hydroxy-2-{[(2-methoxyethyl)amino]methyl}-2,3-dihydro-1H-indol-5-yl]-1λ^6,2,5-thiadiazolidine-1,1,3-trione] |  | 7.00 to 8.00 |  | 7.00 to 8.00 | 5.91 |  | 
12 | O=C1CN(c2c(O)cc3c(c2F)C[C@H](CNCC2CCC2)N3)S(=O)(=O)N1 [Compound 137, 5-[(2R)-2-{[(cyclobutylmethyl)amino]methyl}-4-fluoro-6-hydroxy-2,3-dihydro-1H-indol-5-yl]-1λ^6,2,5-thiadiazolidine-1,1,3-trione] |  | 7.00 to 8.00 |  | 7.00 to 8.00 | 6.04 |  | 
